Laboratory results taken from the supplement of paper PMC10307832.

Columns and labels:
Test in all cases: relative viability (nuclei count vs DMSO), 5 days (fraction); higher = more cells survive
[1] = compound: N=C1NC(=O)/C(=C/c2ccc(O)cc2)S1 [Mirin] + CC(=O)c1c(C)c2cnc(Nc3ccc(N4CCNCC4)cn3)nc2n(C2CCCC2)c1=O [Palbociclib] (partner 0.5 µM)
Method in brief: (§1)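 Each reported value is a median over duplicate plates. It expresses relative viability: treated-well nuclei count divided by vehicle-well nuclei count. Lung cancer cell lines in 1536-well plates were dosed by pin tool a day after seeding, alone with one drug or with a fixed anchor-drug dose plus five library-drug doses (not always all listed) in √10 steps, and nuclei were counted after 5 days.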

[2] = compound: N=C1NC(=O)/C(=C/c2ccc(O)cc2)S1 [Mirin] + CCNC(=O)c1noc(-c2cc(C(C)C)c(O)cc2O)c1-c1ccc(CN2CCOCC2)cc1 [Luminespib] (partner 0.01 µM)
Method in brief: as §1

[3] = compound: CCn1c(-c2nonc2N)nc2cnc(Oc3cccc(NC(=O)c4ccc(OCCN5CCOCC5)cc4)c3)cc21 + CC1(C)CCC(c2ccc(Cl)cc2)=C(CN2CCN(c3ccc(C(=O)NS(=O)(=O)c4ccc(N[C@H](CCN5CCOCC5)CSc5ccccc5)c(S(=O)(=O)C(F)(F)F)c4)cc3)CC2)C1 [Navitoclax] (partner 0.5 µM)
Method in brief: as §1

[4] = compound: N=C1NC(=O)/C(=C/c2ccc(O)cc2)S1 [Mirin] + CS(=O)(=O)CCNCc1ccc(-c2ccc3ncnc(Nc4ccc(OCc5cccc(F)c5)c(Cl)c4)c3c2)o1 [Lapatinib] (partner 2 µM)
Method in brief: as §1

| Cell Line | relative viability ([1]; first compound 0.25 µM) | relative viability ([1]; first compound 0.7906 µM) | relative viability ([1]; first compound 2.5 µM) | relative viability ([1]; first compound 7.906 µM) | relative viability ([1]; first compound 25 µM) | relative viability ([2]; first compound 0.25 µM) | relative viability ([2]; first compound 0.7906 µM) | relative viability ([2]; first compound 2.5 µM) | relative viability ([2]; first compound 7.906 µM) | relative viability ([2]; first compound 25 µM) | relative viability ([3]; first compound 0.04 µM) | relative viability ([3]; first compound 0.1265 µM) | relative viability ([3]; first compound 0.4 µM) | relative viability ([3]; first compound 4 µM) | relative viability ([4]; first compound 0.25 µM) | relative viability ([4]; first compound 0.7906 µM) | relative viability ([4]; first compound 2.5 µM) | relative viability ([4]; first compound 7.906 µM) | relative viability ([4]; first compound 25 µM) | relative viability ([3]; first compound 1.265 µM) |
| --- | --- | --- | --- | --- | --- | --- | --- | --- | --- | --- | --- | --- | --- | --- | --- | --- | --- | --- | --- | --- |
| ChaGo-K-1 | 0.915 | 0.961 | 0.973 | 0.919 | 0.68 | 0.555 | 0.295 | 0.705 | 0.429 | 0.306 | 1.42 | 0.876 | 0.762 | 0.712 |  |  |  |  |  |  |
| EBC-1 |  |  |  |  |  |  |  |  |  |  | 0.519 | 0.341 | 0.429 | 0.261 | 0.203 | 0.208 | 0.219 | 0.201 | 0.221 | 0.323 |
| EKVX | 0.367 | 0.376 | 0.302 | 0.365 | 0.412 | 0.868 | 0.754 | 0.907 | 0.74 | 0.886 | 1.13 | 1.01 | 0.861 | 0.831 | 0.213 | 0.192 | 0.23 | 0.215 | 0.256 | 0.895 |
| EMC-BAC-2 | 0.485 | 0.515 | 0.52 | 0.4 | 0.502 | 1.08 | 1.13 | 1.13 | 1.17 | 1.1 | 1.44 | 1.2 | 1.18 | 1.19 | 0.955 | 0.902 | 0.954 | 0.918 | 0.88 | 1.16 |
| EPLC-272H | 0.283 |  | 0.339 | 0.345 | 0.353 | 0.176 |  | 0.311 | 0.198 | 0.185 | 1.22 | 1.07 | 1.1 | 1.1 | 0.9 |  | 0.886 | 0.83 | 0.664 | 1.05 |
| H3255 | 0.308 | 0.309 | 0.298 | 0.323 | 0.328 | 0.825 | 0.79 | 0.943 | 0.712 | 0.821 | 0.675 | 0.551 | 0.454 | 0.35 | 0.25 | 0.307 | 0.236 | 0.241 | 0.218 | 0.329 |
| HARA | 0.273 | 0.277 | 0.265 | 0.293 | 0.268 | 0.808 |  | 0.693 | 0.773 | 0.372 | 1.19 | 1.02 | 1.09 | 1.14 | 0.836 | 0.747 | 0.742 | 0.652 | 0.665 | 1.18 |
| HCC-15 | 0.739 | 0.712 | 0.677 | 0.674 | 0.737 | 0.353 | 0.391 | 0.289 | 0.452 | 0.274 | 0.876 | 0.636 | 0.693 | 0.708 | 0.874 | 0.546 | 0.9 | 0.803 | 0.79 | 0.586 |
| HCC-44 | 1 | 1.1 | 0.91 | 0.975 | 1.15 | 0.968 | 1.19 | 0.805 | 0.939 | 1.05 | 0.944 | 1.07 | 1.14 | 0.963 | 1.07 | 1.12 | 1.05 | 1.04 | 1.28 | 1 |
